{"source": "patent US8927717B1", "about": "“Thiochromeno[2,3-c]quinolin-12-one derivatives, preparation method and application thereof” (National Defense Medical Center, priority 2014, dated 2015)", "assay_type_in_all_cases": "cell-based", "key": {"DU-145": {"tested_on": "DU-145", "settings": "DU-145; 10^−5 molar"}, "MDA-MB-435": {"tested_on": "MDA-MB-435", "settings": "MDA-MB-435; 10^−5 molar"}, "U251": {"tested_on": "U251", "settings": "U251; 10^−5 molar"}, "60 cancer cell lines": {"tested_on": "60 cancer cell lines", "assay": "NCI 60-cell screen, SRB, whole panel (mean, delta, range)", "settings": "10^−5 molar"}, "SR": {"tested_on": "SR", "settings": "SR; 10^−5 molar"}, "NCI-H522": {"tested_on": "NCI-H522", "settings": "NCI-H522; 10^−5 molar"}, "KM12": {"tested_on": "KM12", "assay": "cells", "settings": "KM12; 10^−5 molar"}, "HT29": {"tested_on": "HT29", "settings": "HT29; 10^−5 molar"}, "MOLT-4": {"tested_on": "MOLT-4", "settings": "MOLT-4; 10^−5 molar"}, "RXF 393": {"tested_on": "RXF 393", "settings": "RXF 393; 10^−5 molar"}, "TK-10": {"tested_on": "TK-10", "settings": "TK-10; 10^−5 molar"}, "UO-31": {"tested_on": "UO-31", "settings": "UO-31; 10^−5 molar"}, "MDA-MB-486": {"tested_on": "MDA-MB-486", "settings": "MDA-MB-486; 10^−5 molar"}, "SNB-75": {"tested_on": "SNB-75", "settings": "SNB-75; 10^−5 molar"}, "MCF7": {"tested_on": "MCF7", "settings": "MCF7; 10^−5 molar"}, "K-562": {"tested_on": "K-562", "settings": "K-562; 10^−5 molar"}, "NCI-H23": {"tested_on": "NCI-H23", "settings": "NCI-H23; 10^−5 molar"}, "SF-295": {"tested_on": "SF-295", "settings": "SF-295; 10^−5 molar"}, "HOP-62": {"tested_on": "HOP-62", "settings": "HOP-62; 10^−5 molar"}, "NCI/ADR-RES": {"tested_on": "NCI/ADR-RES", "settings": "NCI/ADR-RES; 10^−5 molar"}, "OVCAR-5": {"tested_on": "OVCAR-5", "settings": "OVCAR-5; 10^−5 molar"}, "NCI-H226": {"tested_on": "NCI-H226", "settings": "NCI-H226; 10^−5 molar"}, "A498": {"tested_on": "A498", "settings": "A498; 10^−5 molar"}, "SNB-19": {"tested_on": "SNB-19", "settings": "SNB-19; 10^−5 molar"}, "SF-268": {"tested_on": "SF-268", "settings": "SF-268; 10^−5 molar"}, "SN12C": {"tested_on": "SN12C", "settings": "SN12C; 10^−5 molar"}, "UACC-62": {"tested_on": "UACC-62", "settings": "UACC-62; 10^−5 molar"}, "OVCAR-8": {"tested_on": "OVCAR-8", "settings": "OVCAR-8; 10^−5 molar"}, "SK-MEL-28": {"tested_on": "SK-MEL-28", "settings": "SK-MEL-28; 10^−5 molar"}, "A549/ATCC": {"tested_on": "A549/ATCC", "settings": "A549/ATCC; 10^−5 molar"}, "SW-620": {"tested_on": "SW-620", "settings": "SW-620; 10^−5 molar"}, "ACHN": {"tested_on": "ACHN", "settings": "ACHN; 10^−5 molar"}, "LOX IMVI": {"tested_on": "LOX IMVI", "settings": "LOX IMVI; 10^−5 molar"}, "MALME-3M": {"tested_on": "MALME-3M", "settings": "MALME-3M; 10^−5 molar"}, "MDA-MB-231/ATCC": {"tested_on": "MDA-MB-231/ATCC", "settings": "MDA-MB-231/ATCC; 10^−5 molar"}, "786-0": {"tested_on": "786-0", "settings": "786-0; 10^−5 molar"}, "HCT-15": {"tested_on": "HCT-15", "settings": "HCT-15; 10^−5 molar"}, "HS 578T": {"tested_on": "HS 578T", "settings": "HS 578T; 10^−5 molar"}, "T-47D": {"tested_on": "T-47D", "settings": "T-47D; 10^−5 molar"}}}
{"smiles": "COc1ccc(CCNc2nc3ccccc3c3c(=O)c4cc(Cl)ccc4sc23)cc1", "note": "[Compound N31, 10-Chloro-6-((4-methoxyphenethyl)amino)-12H-thiochromeno[2,3-c]quinolin-12-one]", "values": [{"measurement": "Growth percent", "setting": "DU-145", "result": 107.03, "unit": "%"}, {"measurement": "Growth percent", "setting": "MDA-MB-435", "result": 104.49, "unit": "%"}, {"measurement": "Growth percent", "setting": "U251", "result": 98.72, "unit": "%"}, {"measurement": "Growth percent, Delta", "setting": "60 cancer cell lines; delta over panel", "result": 39.45, "unit": "%"}, {"measurement": "Growth percent, Mean", "setting": "60 cancer cell lines; mean over panel", "result": 93.38, "unit": "%"}, {"measurement": "Growth percent, Range", "setting": "60 cancer cell lines; range over panel", "result": 78.64, "unit": "%"}, {"measurement": "Growth percent", "setting": "SR", "result": 94.13, "unit": "%"}, {"measurement": "Growth percent", "setting": "NCI-H522", "result": 93.69, "unit": "%"}, {"measurement": "Growth percent", "setting": "KM12", "result": 109.46, "unit": "%"}, {"measurement": "Growth percent", "setting": "HT29", "result": 120.78, "unit": "%"}, {"measurement": "Growth percent", "setting": "MOLT-4", "result": 82.02, "unit": "%"}, {"measurement": "Growth percent", "setting": "RXF 393", "result": 88.50, "unit": "%"}, {"measurement": "Growth percent", "setting": "TK-10", "result": 132.57, "unit": "%"}, {"measurement": "Growth percent", "setting": "UO-31", "result": 72.12, "unit": "%"}, {"measurement": "Growth percent", "setting": "MDA-MB-486", "result": 53.93, "unit": "%"}, {"measurement": "Growth percent", "setting": "SNB-75", "result": 74.50, "unit": "%"}, {"measurement": "Growth percent", "setting": "MCF7", "result": 59.13, "unit": "%"}, {"measurement": "Growth percent", "setting": "K-562", "result": 91.76, "unit": "%"}, {"measurement": "Growth percent", "setting": "NCI-H23", "result": 92.72, "unit": "%"}, {"measurement": "Growth percent", "setting": "SF-295", "result": 95.31, "unit": "%"}, {"measurement": "Growth percent", "setting": "HOP-62", "result": 90.07, "unit": "%"}, {"measurement": "Growth percent", "setting": "NCI/ADR-RES", "result": 103.78, "unit": "%"}, {"measurement": "Growth percent", "setting": "OVCAR-5", "result": 100.83, "unit": "%"}, {"measurement": "Growth percent", "setting": "NCI-H226", "result": 72.39, "unit": "%"}, {"measurement": "Growth percent", "setting": "A498", "result": 99.56, "unit": "%"}, {"measurement": "Growth percent", "setting": "SNB-19", "result": 96.74, "unit": "%"}, {"measurement": "Growth percent", "setting": "SF-268", "result": 100.14, "unit": "%"}, {"measurement": "Growth percent", "setting": "SN12C", "result": 94.23, "unit": "%"}, {"measurement": "Growth percent", "setting": "UACC-62", "result": 80.17, "unit": "%"}, {"measurement": "Growth percent", "setting": "OVCAR-8", "result": 97.83, "unit": "%"}, {"measurement": "Growth percent", "setting": "SK-MEL-28", "result": 99.41, "unit": "%"}, {"measurement": "Growth percent", "setting": "A549/ATCC", "result": 93.49, "unit": "%"}, {"measurement": "Growth percent", "setting": "SW-620", "result": 97.10, "unit": "%"}, {"measurement": "Growth percent", "setting": "ACHN", "result": 91.19, "unit": "%"}, {"measurement": "Growth percent", "setting": "LOX IMVI", "result": 87.78, "unit": "%"}, {"measurement": "Growth percent", "setting": "MALME-3M", "result": 99.74, "unit": "%"}, {"measurement": "Growth percent", "setting": "MDA-MB-231/ATCC", "result": 82.31, "unit": "%"}, {"measurement": "Growth percent", "setting": "786-0", "result": 100.71, "unit": "%"}, {"measurement": "Growth percent", "setting": "HCT-15", "result": 100.67, "unit": "%"}, {"measurement": "Growth percent", "setting": "HS 578T", "result": 87.49, "unit": "%"}, {"measurement": "Growth percent", "setting": "T-47D", "result": 69.90, "unit": "%"}]}
